Marks after values point to notes of the source that are not given here.
Experiments:
[1] = Stability of bulk material with excipients for 2 weeks at 50 C and 50 C/75% r.h. (HPLC assay); assay type: physicochemical; conditions: for HPLC Assay Results (External Standard): in % (unit assumed); for stability compared with the free base of vildagliptin: bulk and excipient mixtures, 2 weeks
Procedure: Stability of Bulk Material with Excipients for 2 week at 50 C and 50 C/75% r.h.
Procedure for Dry Mixtures: 25 mg of free base drug substance was weighed into sample tube and approximately 2.5 grams of mixture A, or 25 mg of Lactose was added to the tube. Weight adjustments were made for each salt.
(§1) One sample preparation per condition and one injection per sample.
Controls: A control of the drug substance with the excipients will be prepared and analyzed as a time zero data point and to test the efficiency of extracting the drug substance from the excipients.
Mixture A: (oral) mannitol/Avicel PH 102/Cutina HR 57:38:5 (m/m/m)

[2] = Forced decomposition (HPLC assay, 3 days); assay type: physicochemical; conditions: for HPLC Assay Results (External Standard): in % (unit assumed)
Procedure: Procedure: Weigh 25 mg drug substance to a test tube and add 5 ml of appropriate solution.
as §1
Dilute sample to 1 mg/mL with water for HPLC analysis.
All salt forms were tested in bulk and water.
If the newer gradient method is selected then the order of elution of the acid degradation product and the amide degradation product are reversed, with the acid degradation product eluting first about 1.8 minutes and the amide degradation product eluting second about 2.5 minutes. Only the extended stability (3 month) samples were analyzed with the gradient HPLC method.

[3] = cited from earlier work; for Dissociation Constant (pKa's), first value: first pKa of the salt-forming acid (counter-ion); for Dissociation Constant (pKa's), second value: second pKa of the salt-forming acid (counter-ion)
[4] = Racemization study; assay type: physicochemical
Description: The free base in water chemically degraded and detection of racemization was not possible.

[5] = Dissociation constant (pKa's) of LAF237 free base and salt-forming acids; assay type: physicochemical; conditions: LAF237 free base
[6] = 1% in mixture A Dry Granulated, 2 weeks at 50/75% r.h.
[7] = 1% in mixture A Dry Granulated, 2 weeks at 50° C.
[8] = 1% in mixture A Dry Granulated, t0
[9] = 50% in Lactose Dry Granulated, 2 weeks at 50/75% r.h.
[10] = 50% in Lactose Dry Granulated, 2 weeks at 50° C.
[11] = 50% in Lactose Dry Granulated, t0

| HPLC Assay Results (External Standard) [1, 6] | HPLC Assay Results (External Standard) [1, 7] | HPLC Assay Results (External Standard) [1, 8] | HPLC Assay Results (External Standard) [1, 9] | HPLC Assay Results (External Standard) [1, 10] | HPLC Assay Results (External Standard) [1, 11] | HPLC Assay Results (External Standard) ([1]; Bulk, 2 weeks at 50/75% r.h.) | HPLC Assay Results (External Standard) ([1]; Bulk, 2 weeks at 50° C.) | HPLC Assay Results (External Standard) ([1]; Bulk, t0) | HPLC Assay Results (External Standard) ([2]; Bulk, 80° C. (3-day)) | HPLC Assay Results (External Standard) ([2]; Bulk, ambient (3-day)) | HPLC Assay Results (External Standard) ([2]; H2O, 80° C. (3-day)) | HPLC Assay Results (External Standard) ([2]; H2O, ambient (3-day)) | Compound | stability compared with the free base of vildagliptin [1] | stability in water ([2]; water at 80° C. after 3 days) | Dissociation Constant (pKa's), first value [3] | Dissociation Constant (pKa's), second value [3] | racemization ([4]; drug in the solid state) | further results |
| --- | --- | --- | --- | --- | --- | --- | --- | --- | --- | --- | --- | --- | --- | --- | --- | --- | --- | --- | --- |
| 96.0 | 94.6 | 96.1 | 98.2 | 98.9 | 99.5 | 98.9 | 99.0 | 104.0 | 98.8 | 102.2 | 98.9 | 101.9 | Hydrogen Fumarate Salt of Vildagliptin [Example 4] | better stability | remain stable | 3.03 | 4.47 | – | – |
| – | – | – | – | – | – | – | – | – | – | – | – | – | tartarate | – | – | 2.98 | 4.34 | – | – |
| 83.8* | 94.2* | 98.1* | 96.5 | 98.9 | 100.7 | 98.7 | 98.6 | 100.0 | 100.3 | 99.9 | 7.5 | 98.4 | N#C[C@@H]1CCCN1C(=O)CNC12CC3CC(CC(O)(C3)C1)C2 [Free Base, (S)-1-[(3-hydroxy-1-adamantyl)amino]acetyl-2-cyano-pyrrolidine, reference compound] | – | – | – | – | no sign of racemization | pKa [5]: 7.86; % loss in assay value ([1]; in the presence of mixture A): large losses; stability in water ([2]; free base in water, after 3 days): complete degradation; LAF237 remaining ([2]; peroxide sample, after three days): 3%; stability under acidic conditions ([2]; room temperature): good stability |

| Compound | HPLC Assay Results (External Standard) [1, 6] | HPLC Assay Results (External Standard) [1, 7] | HPLC Assay Results (External Standard) [1, 8] | HPLC Assay Results (External Standard) [1, 9] | HPLC Assay Results (External Standard) [1, 10] | HPLC Assay Results (External Standard) [1, 11] | HPLC Assay Results (External Standard) ([1]; Bulk, 2 weeks at 50/75% r.h.) | HPLC Assay Results (External Standard) ([1]; Bulk, 2 weeks at 50° C.) | HPLC Assay Results (External Standard) ([1]; Bulk, t0) | HPLC Assay Results (External Standard) ([2]; Bulk, 80° C. (3-day)) | HPLC Assay Results (External Standard) ([2]; Bulk, ambient (3-day)) | HPLC Assay Results (External Standard) ([2]; H2O, 80° C. (3-day)) | HPLC Assay Results (External Standard) ([2]; H2O, ambient (3-day)) | stability compared with the free base of vildagliptin [1] | stability in water ([2]; water at 80° C. after 3 days) | Dissociation Constant (pKa's), first value [3] | Dissociation Constant (pKa's), second value [3] | racemization ([4]; drug in the solid state) | further results |
| --- | --- | --- | --- | --- | --- | --- | --- | --- | --- | --- | --- | --- | --- | --- | --- | --- | --- | --- | --- |
| Hydrochloride Salt of Vildagliptin [Example 1] | 95.5 | 96.6 | 97.3 | 98.7 | 99.7 | 100.8 | 99.6 | 100.5 | 100.7 | 98.8 | 98.8 | 95.3 | 99.9 | better stability | remain stable | – | – | no sign of racemization | racemization ([4]; in solution in water, 80° C.): no sign of racemization; racemization ([4]; in solution in water, ambient): no sign of racemization |

Source: patent US20080279932A1, “Compounds” (priority 2005, published 2008)
